According to ChEMBL document CHEMBL1153134, “Dammarane-type saponins from the flower buds of Panax ginseng and their effects on human leukemia cells” (Bioorg Med Chem Lett, 2010):
Active and inactive are the calls of the source. No cut-off for these calls is given here.

How the values were obtained:
HL-60 [1] = experiment: Cytotoxicity against human HL60 cells by MTT assay; format: functional, cell-based
HL-60 [2] = experiment: Induction of apoptosis in human HL60 cells assessed as DNA accumulation at sub-G1 phase at IC50 concentration after 24 hrs by flow cytometry; format: functional
HL-60 [3] = experiment: Induction of apoptosis in human HL60 cells assessed as increase of apoptotic bodies at IC50 concentration after 24 hrs using Hoechst 33342 staining by fluorescent microscopic analysis; format: functional, cell-based
HaCaT = experiment: Inhibition of ultraviolet-B-induced apoptosis in human HaCaT cells; format: functional, cell-based

Structure (SMILES)	IC50 (HL-60 [1]) [µM]	Activity (HL-60 [2]) [%]	Activity (HL-60 [3])	Activity (HaCaT)
C=C(C)C(CC[C@](C)(O[C@@H]1O[C@H](COC2OC[C@H](O)[C@H](O)[C@H]2O)[C@@H](O)[C@H](O)[C@H]1O)[C@H]1CC[C@]2(C)[C@@H]1[C@H](O)C[C@@H]1[C@@]3(C)CC[C@H](O[C@@H]4O[C@H](COC5O[C@H](CO)[C@@H](O)[C@H](O)[C@H]5O)[C@@H](O)[C@H](O)[C@H]4O)C(C)(C)[C@@H]3[C@@H](O)C[C@]12C)OO (some centres undefined) [FLORALGINSENOSIDE TD]	100			
CC(C)=CCC[C@](C)(O[C@@H]1O[C@H](CO)[C@@H](O)[C@H](O)[C@H]1O)[C@H]1CC[C@]2(C)[C@@H]1[C@H](O)C[C@@H]1[C@@]3(C)CC[C@H](O)C(C)(C)[C@@H]3[C@@H](O)C[C@]12C [GINSENOSIDE F1]	23.2	19.2	Active	Active
O=C1c2c(O)ccc(O)c2C(=O)c2c(NCCNCCO)ccc(NCCNCCO)c21 [MITOXANTRONE]	6.8			
COC(CC[C@](C)(O[C@@H]1O[C@H](CO)[C@@H](O)[C@H](O)[C@H]1O)[C@H]1CC[C@]2(C)[C@@H]1[C@H](O)C[C@@H]1[C@@]3(C)CC[C@H](O)C(C)(C)[C@@H]3[C@@H](O)C[C@]12C)OC [FLORALGINSENOSIDE TB]	100			
CC(C)=CCC[C@](C)(O[C@@H]1O[C@H](CO[C@H]2O[C@H](CO)[C@@H](O)[C@@H]2O)[C@@H](O)[C@H](O)[C@H]1O)[C@H]1CC[C@]2(C)[C@@H]1[C@H](O)C[C@@H]1[C@@]3(C)CC[C@H](O)C(C)(C)[C@@H]3[C@@H](O)C[C@]12C [GINSENOSIDE F5]	62.4	21.4	Active	
C=C(C)C(=O)CC[C@](C)(O[C@@H]1O[C@H](CO)[C@@H](O)[C@H](O)[C@H]1O)[C@H]1CC[C@]2(C)[C@@H]1[C@H](O)C[C@@H]1[C@@]3(C)CC[C@H](O)C(C)(C)[C@@H]3[C@@H](O)C[C@]12C [FLORALGINSENOSIDE TA]	36.3	29.8	Active	
C=C(C)C(CC[C@](C)(O[C@@H]1O[C@H](CO[C@@H]2OC[C@H](O)[C@H](O)[C@H]2O)[C@@H](O)[C@H](O)[C@H]1O)[C@H]1CC[C@]2(C)[C@@H]1[C@H](O)C[C@@H]1[C@@]3(C)CC[C@H](O[C@@H]4O[C@H](CO[C@@H]5O[C@H](CO)[C@@H](O)[C@H](O)[C@H]5O)[C@@H](O)[C@H](O)[C@H]4O)C(C)(C)[C@@H]3[C@@H](O)C[C@]12C)OO (some centres undefined) [FLORALGINSENOSIDE TC]	100			
